Assay results from the NIST ThermoML archive (doi:10.1016/j.tca.2014.06.026).
± gives the expanded uncertainty stated by the source.

Experiments:
[1] = 101 kPa, Liquid; for speed of sound: Frequency=2 MHz, Sing-around technique in a fixed-path interferometer; for viscosity: Oscillating disk viscometry; for mass density: Vibrating tube method
[2] = xn = mol fraction of the nth substance listed; conditions: 101 kPa, Liquid, x1 = 1; for speed of sound: Frequency=2 MHz, Sing-around technique in a fixed-path interferometer; for viscosity: Oscillating disk viscometry; for mass density: Vibrating tube method

Row | Structure (SMILES) | speed of sound ([1]; 303.15 K) | viscosity ([1]; 303.15 K) | mass density ([1]; 303.15 K) | speed of sound ([1]; 308.15 K) | viscosity ([1]; 308.15 K) | mass density ([1]; 308.15 K) | speed of sound ([1]; 313.15 K) | viscosity ([1]; 313.15 K) | mass density ([1]; 313.15 K) | speed of sound ([1]; 318.15 K) | viscosity ([1]; 318.15 K) | mass density ([1]; 318.15 K) | speed of sound ([2]; 303.15 K) | viscosity ([2]; 303.15 K) | mass density ([2]; 303.15 K) | speed of sound ([2]; 308.15 K) | viscosity ([2]; 308.15 K) | mass density ([2]; 308.15 K) | speed of sound ([2]; 313.15 K) | viscosity ([2]; 313.15 K) | further results
1 | OC1CCCCC1 [cyclohexanol] | 1443.2 ± 0.9 m/s | 41.07 ± 8.2 mPa·s | 941.32 ± 0.12 kg/m3 | 1419.6 ± 0.9 m/s | 27.95 ± 5.6 mPa·s | 937.23 ± 0.12 kg/m3 | 1395.2 ± 0.9 m/s | 16.66 ± 3.3 mPa·s | 933.48 ± 0.12 kg/m3 | 1370.8 ± 0.9 m/s | 8.888 ± 1.8 mPa·s | 928.11 ± 0.12 kg/m3 |  |  |  |  |  |  |  |  | 
2 | CN1CCCC1=O [N-methylpyrrolidone] + C1=CCCCC1 |  |  |  |  |  |  |  |  |  |  |  |  | 1552.8 ± 1 m/s | 1.511 ± 0.3 mPa·s | 1023.45 ± 0.11 kg/m3 | 1526.4 ± 0.9 m/s | 1.409 ± 0.28 mPa·s | 1019.34 ± 0.11 kg/m3 | 1501 ± 0.9 m/s | 1.332 ± 0.27 mPa·s | mass density ([2]; 313.15 K): 1014.82 ± 0.11 kg/m3; speed of sound ([2]; 318.15 K): 1478 ± 0.9 m/s; viscosity ([2]; 318.15 K): 1.21 ± 0.24 mPa·s; mass density ([2]; 318.15 K): 1010.06 ± 0.11 kg/m3
3 | C1=CCCCC1 [cyclohexene] | 1252.1 ± 0.8 m/s | 0.581 ± 0.12 mPa·s | 801.81 ± 0.15 kg/m3 | 1224.8 ± 0.8 m/s | 0.549 ± 0.11 mPa·s | 797.25 ± 0.15 kg/m3 | 1196.6 ± 0.8 m/s | 0.516 ± 0.1 mPa·s | 792.61 ± 0.15 kg/m3 | 1169.6 ± 0.8 m/s | 0.488 ± 0.098 mPa·s | 788.02 ± 0.15 kg/m3 |  |  |  |  |  |  |  |  | 
4 | CN1CCCC1=O [N-methylpyrrolidone] + NC1CCCCC1 |  |  |  |  |  |  |  |  |  |  |  |  | 1552.8 ± 1 m/s | 1.511 ± 0.3 mPa·s | 1023.45 ± 0.11 kg/m3 | 1526.4 ± 0.9 m/s | 1.409 ± 0.28 mPa·s | 1019.34 ± 0.11 kg/m3 | 1501 ± 0.9 m/s | 1.332 ± 0.27 mPa·s | mass density ([2]; 313.15 K): 1014.82 ± 0.11 kg/m3; speed of sound ([2]; 318.15 K): 1478 ± 0.9 m/s; viscosity ([2]; 318.15 K): 1.21 ± 0.24 mPa·s; mass density ([2]; 318.15 K): 1010.06 ± 0.11 kg/m3
5 | NC1CCCCC1 [cyclohexylamine] | 1397.8 ± 0.9 m/s | 1.797 ± 0.36 mPa·s | 857.71 ± 0.14 kg/m3 | 1379.2 ± 0.9 m/s | 1.704 ± 0.34 mPa·s | 853.14 ± 0.14 kg/m3 | 1360.6 ± 0.9 m/s | 1.617 ± 0.32 mPa·s | 848.61 ± 0.14 kg/m3 | 1342 ± 0.9 m/s | 1.506 ± 0.3 mPa·s | 844.07 ± 0.14 kg/m3 |  |  |  |  |  |  |  |  | 
6 | CN1CCCC1=O [N-methylpyrrolidone] + OC1CCCCC1 |  |  |  |  |  |  |  |  |  |  |  |  | 1552.8 ± 1 m/s | 1.511 ± 0.3 mPa·s | 1023.45 ± 0.11 kg/m3 | 1526.4 ± 0.9 m/s | 1.409 ± 0.28 mPa·s | 1019.34 ± 0.11 kg/m3 | 1501 ± 0.9 m/s | 1.332 ± 0.27 mPa·s | mass density ([2]; 313.15 K): 1014.82 ± 0.11 kg/m3; speed of sound ([2]; 318.15 K): 1478 ± 0.9 m/s; viscosity ([2]; 318.15 K): 1.21 ± 0.24 mPa·s; mass density ([2]; 318.15 K): 1010.06 ± 0.11 kg/m3
7 | CN1CCCC1=O [N-methylpyrrolidone] | 1552.8 ± 1 m/s | 1.511 ± 0.3 mPa·s | 1023.45 ± 0.11 kg/m3 | 1526.4 ± 0.9 m/s | 1.409 ± 0.28 mPa·s | 1019.34 ± 0.11 kg/m3 | 1501 ± 0.9 m/s | 1.332 ± 0.27 mPa·s | 1014.82 ± 0.11 kg/m3 | 1478 ± 0.9 m/s | 1.21 ± 0.24 mPa·s | 1010.06 ± 0.11 kg/m3 |  |  |  |  |  |  |  |  | 
